According to ChEMBL document CHEMBL4831486, “Design, synthesis and biological evaluation of pleuromutilin-Schiff base hybrids as potent anti-MRSA agents in vitro and in vivo” (Eur J Med Chem, 2021):
Converted amounts (≈) assume the structure as drawn.

Assays:
Staphylococcus aureus [1] = assay: Antibacterial activity against Methycillin-resistant Staphylococcus aureus ATCC 43300 assessed as inhibition of bacterial growth measured after 24 hrs by broth dilution method; format: functional
Staphylococcus aureus [2] = assay: Antibacterial activity against Staphylococcus aureus ATCC 29213 assessed as inhibition of bacterial growth measured after 24 hrs by broth dilution method; format: functional
Staphylococcus aureus [3] = assay: Antibacterial activity against Staphylococcus aureus AD3 assessed as inhibition of bacterial growth measured after 24 hrs by broth dilution method; format: functional
Staphylococcus aureus [4] = assay: Antibacterial activity against Staphylococcus aureus 144 assessed as inhibition of bacterial growth measured after 24 hrs by broth dilution method; format: functional
Escherichia coli [5] = assay: Antibacterial activity against Escherichia coli ATCC 25922 assessed as inhibition of bacterial growth measured after 24 hrs by broth dilution method; format: functional
Staphylococcus aureus [6] = assay: Bactericidal activity against Methycillin-resistant Staphylococcus aureus ATCC 43300 assessed as inhibition of bacterial growth measured after 96 hrs by broth dilution method; format: functional
Staphylococcus aureus [7] = assay: Bactericidal activity against Staphylococcus aureus ATCC 29213 assessed as inhibition of bacterial growth measured after 96 hrs by broth dilution method; format: functional
Staphylococcus aureus [8] = assay: Bactericidal activity against Staphylococcus aureus AD3 assessed as inhibition of bacterial growth measured after 96 hrs by broth dilution method; format: functional
Staphylococcus aureus [9] = assay: Bactericidal activity against Staphylococcus aureus 144 assessed as inhibition of bacterial growth measured after 96 hrs by broth dilution method; format: functional
Escherichia coli [10] = assay: Bactericidal activity against Escherichia coli ATCC 25922 assessed as inhibition of bacterial growth measured after 96 hrs by broth dilution method; format: functional
RAW264.7 = assay: Cytotoxicity against mouse RAW264.7 cells assessed as reduced cell viability at 4 ug/ml measured after 16 hrs by MTT assay; format: cell-based; details: raw264.7, 16 h, dose 4 µg/ml
HepG2 = assay: Cytotoxicity against human HepG2 cells assessed as reduced cell viability at 4 ug/ml measured after 16 hrs by MTT assay; format: cell-based; details: hepg2, 16 h, dose 4 µg/ml

| Structure (SMILES) | MIC (Staphylococcus aureus [1]) | MIC (Staphylococcus aureus [2]) | MIC (Staphylococcus aureus [3]) | MIC (Staphylococcus aureus [4]) | MIC (Escherichia coli [5]) | MBC (Staphylococcus aureus [6]) | MBC (Staphylococcus aureus [7]) | MBC (Staphylococcus aureus [8]) | MBC (Staphylococcus aureus [9]) | MBC (Escherichia coli [10]) | Activity (RAW264.7) | Activity (HepG2) |
| --- | --- | --- | --- | --- | --- | --- | --- | --- | --- | --- | --- | --- |
| C=C[C@]1(C)C[C@@H](OC(=O)CSc2nnc(C)n2/N=C/c2cccc(C(F)(F)F)c2)[C@]2(C)[C@H](C)CC[C@]3(CCC(=O)[C@H]32)[C@@H](C)[C@@H]1O | 2 µg/mL (≈ 3.09 µM) | 2 µg/mL (≈ 3.09 µM) | 2 µg/mL (≈ 3.09 µM) | 4 µg/mL (≈ 6.18 µM) | > 64 µg/mL | 4 µg/mL (≈ 6.18 µM) | 4 µg/mL (≈ 6.18 µM) | 4 µg/mL (≈ 6.18 µM) | 4 µg/mL (≈ 6.18 µM) | > 64 µg/mL | Non-Toxic | Non-Toxic |
| C=C[C@]1(C)C[C@@H](OC(=O)CSc2nnc(C)n2/N=C/c2ccc(C#N)cc2)[C@]2(C)[C@H](C)CC[C@]3(CCC(=O)[C@H]32)[C@@H](C)[C@@H]1O | 1 µg/mL (≈ 1.66 µM) | 1 µg/mL (≈ 1.66 µM) | 2 µg/mL (≈ 3.31 µM) | 2 µg/mL (≈ 3.31 µM) | > 64 µg/mL | 4 µg/mL (≈ 6.62 µM) | 4 µg/mL (≈ 6.62 µM) | 4 µg/mL (≈ 6.62 µM) | 4 µg/mL (≈ 6.62 µM) | > 64 µg/mL | Non-Toxic | Non-Toxic |
| C=C[C@]1(C)C[C@@H](OC(=O)CSc2nnc(C)n2/N=C/c2ccccc2Cl)[C@]2(C)[C@H](C)CC[C@]3(CCC(=O)[C@H]32)[C@@H](C)[C@@H]1O | 1 µg/mL (≈ 1.63 µM) | 1 µg/mL (≈ 1.63 µM) | 1 µg/mL (≈ 1.63 µM) | 2 µg/mL (≈ 3.26 µM) | > 64 µg/mL | 2 µg/mL (≈ 3.26 µM) | 2 µg/mL (≈ 3.26 µM) | 4 µg/mL (≈ 6.52 µM) | 4 µg/mL (≈ 6.52 µM) | > 64 µg/mL | Non-Toxic | Non-Toxic |
| C=C[C@]1(C)C[C@@H](OC(=O)CSc2nnc(C)n2/N=C/c2ccccc2[N+](=O)[O-])[C@]2(C)[C@H](C)CC[C@]3(CCC(=O)[C@H]32)[C@@H](C)[C@@H]1O | 0.5 µg/mL (≈ 0.802 µM) | 1 µg/mL (≈ 1.6 µM) | 2 µg/mL (≈ 3.21 µM) | 2 µg/mL (≈ 3.21 µM) | > 64 µg/mL | 1 µg/mL (≈ 1.6 µM) | 4 µg/mL (≈ 6.41 µM) | 8 µg/mL (≈ 12.8 µM) | 8 µg/mL (≈ 12.8 µM) | > 64 µg/mL | Non-Toxic | Non-Toxic |
| C=C[C@]1(C)C[C@@H](OC(=O)CSc2nnc(C)n2/N=C/c2ccccc2O)[C@]2(C)[C@H](C)CC[C@]3(CCC(=O)[C@H]32)[C@@H](C)[C@@H]1O | 0.5 µg/mL (≈ 0.841 µM) | 1 µg/mL (≈ 1.68 µM) | 1 µg/mL (≈ 1.68 µM) | 2 µg/mL (≈ 3.36 µM) | > 64 µg/mL | 1 µg/mL (≈ 1.68 µM) | 2 µg/mL (≈ 3.36 µM) | 4 µg/mL (≈ 6.73 µM) | 4 µg/mL (≈ 6.73 µM) | > 64 µg/mL | Non-Toxic | Non-Toxic |
| C=C[C@]1(C)C[C@@H](OC(=O)CSc2nnc(C)n2/N=C/c2ccc(C(F)(F)F)cc2)[C@]2(C)[C@H](C)CC[C@]3(CCC(=O)[C@H]32)[C@@H](C)[C@@H]1O | 2 µg/mL (≈ 3.09 µM) | 2 µg/mL (≈ 3.09 µM) | 2 µg/mL (≈ 3.09 µM) | 4 µg/mL (≈ 6.18 µM) | > 64 µg/mL | 4 µg/mL (≈ 6.18 µM) | 4 µg/mL (≈ 6.18 µM) | 8 µg/mL (≈ 12.4 µM) | 8 µg/mL (≈ 12.4 µM) | > 64 µg/mL | Non-Toxic | Non-Toxic |
| C=C[C@]1(C)C[C@@H](OC(=O)CSc2nnc(C)n2/N=C/c2cccc(C#N)c2)[C@]2(C)[C@H](C)CC[C@]3(CCC(=O)[C@H]32)[C@@H](C)[C@@H]1O | 1 µg/mL (≈ 1.66 µM) | 1 µg/mL (≈ 1.66 µM) | 2 µg/mL (≈ 3.31 µM) | 2 µg/mL (≈ 3.31 µM) | > 64 µg/mL | 2 µg/mL (≈ 3.31 µM) | 4 µg/mL (≈ 6.62 µM) | 8 µg/mL (≈ 13.2 µM) | 4 µg/mL (≈ 6.62 µM) | > 64 µg/mL | Non-Toxic | Non-Toxic |
| C=C[C@]1(C)C[C@@H](OC(=O)CSc2nnc(C)n2/N=C/c2ccc(F)cc2)[C@]2(C)[C@H](C)CC[C@]3(CCC(=O)[C@H]32)[C@@H](C)[C@@H]1O | 1 µg/mL (≈ 1.68 µM) | 1 µg/mL (≈ 1.68 µM) | 1 µg/mL (≈ 1.68 µM) | 2 µg/mL (≈ 3.35 µM) | > 64 µg/mL | 2 µg/mL (≈ 3.35 µM) | 4 µg/mL (≈ 6.7 µM) | 4 µg/mL (≈ 6.7 µM) | 4 µg/mL (≈ 6.7 µM) | > 64 µg/mL | Non-Toxic | Non-Toxic |
| C=C[C@]1(C)C[C@@H](OC(=O)CSc2nnc(C)n2/N=C/c2cccc(C)c2)[C@]2(C)[C@H](C)CC[C@]3(CCC(=O)[C@H]32)[C@@H](C)[C@@H]1O | 1 µg/mL (≈ 1.69 µM) | 1 µg/mL (≈ 1.69 µM) | 1 µg/mL (≈ 1.69 µM) | 2 µg/mL (≈ 3.37 µM) | > 64 µg/mL | 2 µg/mL (≈ 3.37 µM) | 2 µg/mL (≈ 3.37 µM) | 4 µg/mL (≈ 6.75 µM) | 4 µg/mL (≈ 6.75 µM) | > 64 µg/mL | Non-Toxic | Non-Toxic |
